Key:
Format in all cases: biochemical
JAK1 = target: T1, JAK1 (Homo sapiens, UniProt P23458); assay: In vitro enzyme assay (cell-free HTRF kinase assay), JAK1; settings: catalytic domain aa 850-1154, GST-tag; ATP 60 μM, SRCtide 400 nM, reaction 120 min
T1 construct: JAK1 (aa 850-1154) and TYK2 (aa 871-1187) are expressed with an N-terminally fused GST-tag; GST (N); purchased Carna Bioscience, Inc; host or cells: baculovirus expression system
Method in brief: (§1)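 Catalytic-domain human kinases (baculovirus-expressed; JAK1 GST-tagged aa 850-1154, JAK2/JAK3 His-tagged) reacted with biotin-SRCtide and ATP in HEPES pH 7.5, MgCl2, DTT buffer, 1% DMSO, at room temperature. EDTA stop (10 mM final), then ULight-streptavidin/Eu-anti-phosphotyrosine overnight at 4 °C; HTRF 665/615 ratio gave IC50.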

JAK2 = target: T2, JAK2 (Homo sapiens, UniProt O60674); assay: In vitro enzyme assay (cell-free HTRF kinase assay), JAK2; settings: catalytic domain, His-tag; ATP 10 μM, SRCtide 25 nM, reaction 30 min
T2 construct: All enzymes only contain the catalytic domain; His (N); purchased Carna Bioscience, Inc; host or cells: baculovirus expression system
T2 sequence (O60674 849-1124 limits assumed): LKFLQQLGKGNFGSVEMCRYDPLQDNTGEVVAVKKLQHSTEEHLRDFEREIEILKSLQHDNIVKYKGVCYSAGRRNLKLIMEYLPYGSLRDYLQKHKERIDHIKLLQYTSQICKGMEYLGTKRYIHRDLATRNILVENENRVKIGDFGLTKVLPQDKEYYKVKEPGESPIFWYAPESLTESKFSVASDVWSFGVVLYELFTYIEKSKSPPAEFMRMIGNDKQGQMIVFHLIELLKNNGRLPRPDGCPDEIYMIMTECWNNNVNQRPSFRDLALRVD
Method in brief: as §1

JAK3 = target: T3, JAK3 (Homo sapiens, UniProt P52333); assay: In vitro enzyme assay (cell-free HTRF kinase assay), JAK3; settings: catalytic domain, His-tag; ATP 3 μM, SRCtide 100 nM, reaction 30 min
T3 construct: All enzymes only contain the catalytic domain; His (N); purchased Carna Bioscience, Inc; host or cells: baculovirus expression system
T3 sequence (P52333 822-1111 limits assumed): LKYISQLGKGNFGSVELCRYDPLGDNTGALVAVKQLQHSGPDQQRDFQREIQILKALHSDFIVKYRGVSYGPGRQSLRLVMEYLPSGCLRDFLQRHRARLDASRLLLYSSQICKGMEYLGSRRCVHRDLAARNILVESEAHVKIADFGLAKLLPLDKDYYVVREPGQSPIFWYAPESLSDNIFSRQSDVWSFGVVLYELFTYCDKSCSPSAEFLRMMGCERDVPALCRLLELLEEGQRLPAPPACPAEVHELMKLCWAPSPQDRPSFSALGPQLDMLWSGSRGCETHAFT
Method in brief: as §1

T1 sequence (P23458 850-1154): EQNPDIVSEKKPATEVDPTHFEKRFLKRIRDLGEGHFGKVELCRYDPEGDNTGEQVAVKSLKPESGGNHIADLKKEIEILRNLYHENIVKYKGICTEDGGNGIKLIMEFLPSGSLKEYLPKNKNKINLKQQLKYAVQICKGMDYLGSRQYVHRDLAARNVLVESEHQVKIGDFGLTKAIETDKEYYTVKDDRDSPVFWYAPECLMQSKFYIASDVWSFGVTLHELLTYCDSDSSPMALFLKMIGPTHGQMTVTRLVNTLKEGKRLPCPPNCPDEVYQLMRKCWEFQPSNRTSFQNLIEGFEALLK

IC50 (JAK1) | IC50 (JAK2) | IC50 (JAK3) | Structure (SMILES)
< 500 nM | < 1000 nM | < 500 nM | O=C(Nc1nccc2c1ccn2C(=O)c1c(Cl)cc(CNCCCN2CCOCC2)cc1Cl)C1CC1 [Compound No. 166, N-{1-[2,6-Dichloro-4-({[3-(morpholin-4-yl)propyl]amino}methyl)benzoyl]-1H-pyrrolo[3,2-c]pyridin-4-yl}cyclopropanecarboxamide]
< 1000 nM | < 1000 nM | < 500 nM | O=C(NCCn1cccc1)c1cc(Cl)c(C(=O)n2ccc3c(NC(=O)C4CC4)nccc32)c(Cl)c1 [Compound No. 168, 3,5-Dichloro-4-({4-[(cyclopropylcarbonyl)amino]-1H-pyrrolo[3,2-c]pyridin-1-yl}carbonyl)-N-[2-(1H-pyrrol-1-yl)ethyl]benzamide]
< 500 nM | < 100 nM | < 100 nM | O=C(NCC1CCCNC1)c1cc(Cl)c(C(=O)n2ccc3c(NC(=O)C4CC4)nccc32)c(Cl)c1 (stereo not drawn) [Compound No. 171, 3,5-Dichloro-4-({4-[(cyclopropylcarbonyl)amino]-1H-pyrrolo[3,2-c]pyridin-1-yl}carbonyl)-N-(piperidin-3-ylmethyl)benzamide]

More lines, now with the values behind:

Structure (SMILES) | IC50 (JAK1) | IC50 (JAK2) | IC50 (JAK3)
O=C(Nc1nccc2c1ccn2C(=O)c1c(Cl)cc(CNCCN2CCNC2=O)cc1Cl)C1CC1 [Compound No. 165, N-{1-[2,6-Dichloro-4-({[2-(2-oxoimidazolidin-1-yl)ethyl]amino}methyl)benzoyl]-1H-pyrrolo[3,2-c]pyridin-4-yl}cyclopropanecarboxamide] | < 1000 nM | < 500 nM | < 500 nM
O=C(Nc1nccc2c1ccn2C(=O)c1c(Cl)cc(CNCCCO)cc1Cl)C1CC1 [Compound No. 167, N-[1-(2,6-Dichloro-4-{[(3-hydroxypropyl)amino]methyl}benzoyl)-1H-pyrrolo[3,2-c]pyridin-4-yl]cyclopropanecarboxamide] | < 500 nM | < 500 nM | < 500 nM
O=C(NCCc1cccnc1)c1cc(Cl)c(C(=O)n2ccc3c(NC(=O)C4CC4)nccc32)c(Cl)c1 [Compound No. 169, 3,5-Dichloro-4-({4-[(cyclopropylcarbonyl)amino]-1H-pyrrolo[3,2-c]pyridin-1-yl}carbonyl)-N-[2-(pyridin-3-yl)ethyl]benzamide] | < 1000 nM | < 500 nM | < 1000 nM
O=C(NCC1CC1)c1cc(Cl)c(C(=O)n2ccc3c(NC(=O)C4CC4)nccc32)c(Cl)c1 [Compound No. 170, 3,5-Dichloro-4-({4-[(cyclopropylcarbonyl)amino]-1H-pyrrolo[3,2-c]pyridin-1-yl}carbonyl)-N-(cyclopropylmethyl)benzamide] | < 500 nM | < 1000 nM | < 1000 nM

— US8980911B2, “Heterocyclic compounds as protein kinase inhibitors” (Daiichi Sankyo Company, Limited, priority 2011, dated 2015)
